Data from article PMC10154249, “Unique progerin C-terminal peptide ameliorates Hutchinson–Gilford progeria syndrome phenotype by rescuing BUBR1” (Nature Aging, 2023).
Ends that are not written are not given here.

Experiments:
[1] = system: BUBR1 / CyclinA2 in HGADFN003 cells; experiment: Western blot of BUBR1 and CyclinA2 in HGADFN003 cells; type: cell-based, human; settings: HGADFN003
Description: Western blot was performed as previously described. Cells were lysed in 1× Laemmli sample buffer after washing twice in cold PBS without calcium and magnesium. Protein concentrations were determined using the bicinchoninic acid (BCA) protein assay. Protein lysates were subjected to SDS–PAGE, transferred to 0.45-μm pore size hydrophobic PVDF transfer membrane (Merck Millipore), detected with the appropriate primary antibodies coupled with horseradish peroxidase-conjugated corresponding secondary antibodies, and visualized using enhanced chemiluminescence ECL reagent (GE Healthcare). The Tanon 5500 high-definition low-illumination CCD system (Tanon FLI Capture v.1.02) was used to capture chemiluminescent signals.

HGADFN003 cells [2] = experiment: SA-β-gal staining of HGADFN003 cells; type: cell-based, human; settings: for SA-β-gal positive cells: HGADFN003, Extended Data Fig. 10c
Description: SA-β-gal staining was performed as previously described. Cells were fixed in 0.5% glutaraldehyde for 15 min at room temperature, washed three times with PBS (pH 6.0) containing 1 mM MgCl2 and exposed overnight 37 °C to containing 1 mg ml^–1 5-bromo-4-chloro-3-indolyl-β-D-galactopyranoside (MCE, catalog no. HY-15934), 0.12 mM potassium ferrocyanide (Sigma, catalog no. P3289), 0.12 mM potassium ferricyanide (Sigma, catalog no. P8131) and 1 mM MgCl2 PBS buffer (pH 6.0). Cells were washed three times with H2O and observed under a microscope (OLYMPUS CKX53). SA-β-gal positive cells were quantified by investigators who were blinded to the identity of the analyzed cell.

HGADFN003 cells [3] = experiment: Ki67 immunofluorescence of HGADFN003 cells; type: cell-based, human; settings: for Ki67 positive cells: HGADFN003, Extended Data Fig. 10e
Description: (§1) Immunofluorescence was performed as described previously. Cells were plated on cover slips in 12-well plates, left overnight before the treatment. Cells were fixed in 1% formaldehyde in culture medium for 10 min at 37 °C and permeabilized with 0.2% Triton X-100 in PBS for 10 min at room temperature. Cells were washed twice in PBS and blocked for 1 h with 5% BSA in PBS and then incubated with primary antibodies at 4 °C overnight, washed three times in PBS and incubated with secondary antibodies for 1 h at room temperature. Cell nuclei were counterstained with a 500 nM concentration of 4,6-diamidino-2-phenylindole (DAPI) (Sigma). Images were acquired by a fluorescence microscope (OLYMPUS FV-1000, Carl Zeiss LSM880 or Leica DMi8) and analyzed with software NIS-Elements AR v.5.0.1 (Nikon), FLUOVIEW v.4.2b (OLYMPUS), ZEN v.2.3 SP1 (Carl Zeiss) and Leica Application Suite X v.3.6.0.24 (Leica). Cells were quantified by investigators who were blinded to the identity of the analyzed cell.

[4] = system: BUBR1–progerin interaction; experiment: Immunofluorescence of BUBR1 in IMR90 cells with FTI or UPCP; type: cell-based, human
Description: as §1

[5] = in vivo; cited from earlier work
Excerpt: (§2) At present, clinical drugs for HGPS are very rare except for Zokinvy (lonafarnib), which has been approved by the United States (US) Food and Drug Administration (FDA). […] Recently, some gene therapies for HGPS treatment have been developed. The clustered regularly interspaced short palindromic repeat–adeno-associated virus 9 system is used to reduce the expression of progerin and the adenine base editor–adeno-ass ...

HGPS cells = settings: cited from earlier work
Excerpt: as §2

[6] = system: progerin–BUBR1 interaction; experiment: CoIP of progerin and BUBR1 in HEK-293T cells; type: cell-based; settings: HEK-293T cotransfected with Flag-progerin-C 5, 10, 15 μg and HA-progerin
Description: Detailed descriptions of CoIP were described previously[55],[56]. Cells were harvested and washed three times in cold PBS, then lysed in CoIP buffer (25 mM Tris-HCl (pH 7.5), 150 mM KCl, 5 mM EDTA, and 0.5% NP-40) plus protease inhibitor cocktail tablet (Roche). Incubate on ice and shock lysates on the vortex shaker 15 times for 30 s each. Microcentrifuge in 12,000g for 15 min at 4 °C, collect the supernatant, and incubate with 3 μg primary antibodies with gentle shaking overnight at 4 °C, followed by adding 20–40 μl Pure Proteome Protein A/G Mix Magnetic Beads (Millipore, catalog no. […]02) for 3 h. Wash the beads three times with 1 ml CoIP buffer for 8 min each, resuspend in 50 μl 1× loading buffer, and incubate at 100 °C for 8 min. Throw beads away and analyze by immunoblotting.

HEK-293T cells = experiment: Immunofluorescence localization of Flag-progerin-C in HEK-293T cells; type: cell-based; settings: Flag-progerin-C expressed in HEK-293T
Description: as §1

Compound: COC(=O)[C@H](CCSC)NC(=O)c1ccc(NC[C@@H](N)CS)cc1-c1ccccc1 [FTI-277, reference compound]
- BUBR1 expression (FTI-277/UPCP comparison, words) [1]: increasing expression of BUBR1
- CyclinA2 expression (FTI-277/UPCP comparison, words) [1]: increasing expression of BUBR1, CyclinA2
- SA-β-gal activity (FTI-277/UPCP comparison, words) (HGADFN003 cells [2]; HGADFN003): decreased the activity of SA-β-gal
- SA-β-gal positive cells (HGADFN003 cells [2]; replicate 1): 20%
- SA-β-gal positive cells (HGADFN003 cells [2]; replicate 2): 15%
- SA-β-gal positive cells (HGADFN003 cells [2]; replicate 3): 13%
- Ki67 expression (FTI-277/UPCP comparison, words) (HGADFN003 cells [3]; HGADFN003): increasing expression of BUBR1, CyclinA2 and Ki67
- Ki67 positive cells (HGADFN003 cells [3]; replicate 1): 57%
- Ki67 positive cells (HGADFN003 cells [3]; replicate 2): 61%
- Ki67 positive cells (HGADFN003 cells [3]; replicate 3): 75%
- block of the interaction of BUBR1 and progerin [4]: failed to block the interaction of BUBR1 and progerin

Compound: NC(=O)N1CCC(CC(=O)N2CCC([C@H]3c4ncc(Br)cc4CCc4cc(Cl)cc(Br)c43)CC2)CC1 [Zokinvy (lonafarnib), lonafarnib]
- adverse reactions [5]: diarrhea and vomiting

Compound: neuropeptide Y
- cellular HGPS aging phenotype (HGPS cells): delays the cellular HGPS aging phenotype by stimulating autophagy and decreasing progerin accumulation

Compound: progerin-C: progerin C-terminal region (aa residues 565–614), expressed in cells (HHGSHCSSSGDPAEYNLRSRTVLCGTCGQPADKASASGSGAQSPQNCSIM; cysteine pairing not given here; also: 3×Flag tag, end not given here)
- competition with progerin to bind BUBR1 [6]: competes with progerin to bind BUBR1
- cellular location (HEK-293T cells): distributed throughout the cell
